Assay results from ChEMBL document CHEMBL1128031, “The design of dipeptide helical mimetics: the synthesis and biological activity of trisubstituted indanes” (Bioorg Med Chem Lett, 1994).
Peptide text beside a SMILES is read from it. * marks the point of attachment. Cbz = O=C(OCc1ccccc1)*

Columns and labels:
[1] = target: T1, Neuromedin-K receptor (Homo sapiens, UniProt P29371); test: Inhibition of [125I][MePhe]-NKB binding to human Tachykinin receptor 3 in CHO cells; assay type: cell-based
T1 sequence (P29371 whole entry): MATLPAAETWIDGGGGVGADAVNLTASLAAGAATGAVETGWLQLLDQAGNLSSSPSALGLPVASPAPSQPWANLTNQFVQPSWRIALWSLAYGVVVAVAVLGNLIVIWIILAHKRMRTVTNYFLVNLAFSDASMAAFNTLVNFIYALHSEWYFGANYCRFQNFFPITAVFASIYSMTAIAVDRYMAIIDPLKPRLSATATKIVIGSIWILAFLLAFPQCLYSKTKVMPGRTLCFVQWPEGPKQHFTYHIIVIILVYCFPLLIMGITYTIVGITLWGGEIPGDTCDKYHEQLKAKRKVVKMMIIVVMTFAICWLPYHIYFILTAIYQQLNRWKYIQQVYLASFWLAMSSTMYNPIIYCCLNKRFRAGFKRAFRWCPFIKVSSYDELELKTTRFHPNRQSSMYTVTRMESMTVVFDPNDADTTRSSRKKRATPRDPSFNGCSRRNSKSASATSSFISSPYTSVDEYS

[2] = target: Substance-P receptor (Homo sapiens, UniProt P25103); test: Inhibition of [125I]BH-SP binding to tachykinin NK1 receptor in human IM-9 cells; assay type: cell-based
Substance-P receptor, sequence (P25103 whole entry): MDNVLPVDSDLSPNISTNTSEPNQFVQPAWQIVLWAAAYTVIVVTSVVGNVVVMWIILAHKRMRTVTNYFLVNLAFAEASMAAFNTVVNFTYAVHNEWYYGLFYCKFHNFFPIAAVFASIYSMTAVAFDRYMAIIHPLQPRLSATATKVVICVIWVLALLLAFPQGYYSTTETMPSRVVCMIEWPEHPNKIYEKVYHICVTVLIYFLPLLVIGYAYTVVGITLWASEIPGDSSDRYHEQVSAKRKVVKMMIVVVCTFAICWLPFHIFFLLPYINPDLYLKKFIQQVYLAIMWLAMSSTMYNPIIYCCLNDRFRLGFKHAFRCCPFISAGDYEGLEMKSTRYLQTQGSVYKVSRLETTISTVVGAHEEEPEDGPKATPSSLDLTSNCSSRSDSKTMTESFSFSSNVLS

| SMILES | IC50 [1] [µM] | IC50 [2] [µM] |
| --- | --- | --- |
| CC(C)(C)CNC(=O)C1(Cc2ccccc2)CCc2ccc(Cc3ccccc3)cc21 (stereo unspecified) | 5.2 | – |
| O=C(NCCc1ccccc1)C1(Cc2ccccc2)CCc2ccc(Cc3ccccc3)cc21 (stereo unspecified) | 3 | 2.4 |
| COC(=O)C1(Cc2ccccc2)CCc2ccc(Cc3ccccc3)cc21 (stereo unspecified) | 8 | 3 |
| NC(=O)[C@H](Cc1ccccc1)NC(=O)[C@H](Cc1c[nH]c2ccccc12)NC(=O)OCc1ccccc1 (Cbz-Trp-Phe-NH2) | – | 9.3 |
